Measurements as given in patent US8846719B2, “Isoxazolo-pyridine derivatives” (Roche Palo Alto LLC, priority 2007, dated 2014).
Like-named read-outs stand apart in the source and are kept apart here.

Target: human GABA A receptor α5β3γ2 (Homo sapiens (Human), UniProt P18507+P31644)
Assay: [3H]flumazenil competition binding assay, human GABA A α5β3γ2 receptors expressed in HEK293 cells
Procedure: The affinity of compounds at GABA A receptor subtypes was measured by competition for [3H]flumazenil (85 Ci/mmol; Roche) binding to HEK293 cells expressing rat (stably transfected) or human (transiently transfected) receptors of composition α1β3γ2, α2β3γ2, α3β3γ2 and α5β3γ2.
Cell pellets were suspended in Krebs-tris buffer (4.8 mM KCl, 1.2 mM CaCl2, 1.2 mM MgCl2, 120 mM NaCl, 15 mM Tris; pH 7.5; binding assay buffer), homogenized by polytron for ca. 20 sec on ice and centrifuged for 60 min at 4° C. (50000 g; Sorvall, rotor: SM24=20000 rpm). The cell pellets were resuspended in Krebs-tris buffer and homogenized by polytron for ca. 15 sec on ice. Protein was measured (Bradford method, Bio-Rad) and aliquots of 1 mL were prepared and stored at −80° C.
Assays were incubated to equilibrium for 1 hour at 4° C. and harvested onto GF/C uni-filters (Packard) by filtration using a Packard harvester and washing with ice-cold wash buffer (50 mM Tris; pH 7.5). After drying, filter-retained radioactivity was detected by liquid scintillation counting. Ki values were calculated using Excel-Fit (Microsoft) and are the means of two determinations.

[1] = human receptor, displacement of [3H]flumazenil (0.5 nM), means of two determinations, read-out: hKi GABAAa5

| SMILES | Ki [1] [nM] | Ki [nM] |
| --- | --- | --- |
| Cc1onc(-c2ccc(F)c(F)c2)c1COc1ccc(C(=O)NC2CCOCC2)cn1 [Example 127, 6-[3-(3,4-Difluoro-phenyl)-5-methyl-isoxazol-4-ylmethoxy]-N-(tetrahydro-pyran-4-yl)-nicotinamide] | 2.4 | – |
| Cc1onc(-c2ccccc2)c1COc1ccc(C(=O)N2CCOCC2(C)C)cn1 [Example 71, (3,3-Dimethyl-morpholin-4-yl)-[6-(5-methyl-3-phenyl-isoxazol-4-ylmethoxy)-pyridin-3-yl]-methanone] | 80.8 | – |
| Cc1onc(-c2ccccc2)c1COc1ccc(C(=O)N[C@H](CO)C(C)C)cn1 [Example 206, N—((S)-1-Hydroxymethyl-2-methyl-propyl)-6-(5-methyl-3-phenyl-isoxazol-4-ylmethoxy)-nicotinamide] | 1.8 | – |
| O=C(NC(CO)CO)c1ccc(OCc2conc2-c2ccc(F)cc2)nc1 [Example 334, 6-[3-(4-Fluoro-phenyl)-isoxazol-4-ylmethoxy]-N-(2-hydroxy-1-hydroxymethyl-ethyl)-nicotinamide] | 21.2 | – |
| CCNC(=O)c1ccc(OCc2c(-c3ccccc3)noc2C)nc1 [Example 9, N-Ethyl-6-(5-methyl-3-phenyl-isoxazol-4-ylmethoxy)-nicotinamide] | 2.9 | – |
| Cc1onc(-c2cccc(Cl)c2)c1COc1ccc(C(=O)N2CCS(=O)(=O)CC2)cn1 [Example 102, {6-[3-(3-Chloro-phenyl)-5-methyl-isoxazol-4-ylmethoxy]-pyridin-3-yl}-(1,1-dioxo-1λ6-thiomorpholin-4-yl)-methanone] | 19.5 | – |
| Cc1onc(-c2cccnc2)c1COc1ccc(C(=O)NC2CC2)cn1 [Example 157, N-Cyclopropyl-6-(5-methyl-3-pyridin-3-yl-isoxazol-4-ylmethoxy)-nicotinamide] | 26.3 | – |
| CCN1CCCC(NC(=O)c2ccc(OCc3c(-c4ccccc4)noc3C)nc2)C1 (stereo not drawn) [Example 39, N-(1-Ethyl-piperidin-3-yl)-6-(5-methyl-3-phenyl-isoxazol-4-ylmethoxy)-nicotinamide] | 5 | – |
| Cc1onc(-c2ccccc2)c1COc1ccc(C(=O)N[C@H](C)CO)cn1 [Example 195, N—((R)-2-Hydroxy-1-methyl-ethyl)-6-(5-methyl-3-phenyl-isoxazol-4-ylmethoxy)-nicotinamide] | 1.7 | – |
| O=C(NCC(F)(F)F)c1ccc(OCc2conc2-c2ccc(F)cc2)nc1 [Example 330, 6-[3-(4-Fluoro-phenyl)-isoxazol-4-ylmethoxy]-N-(2,2,2-trifluoro-ethyl)-nicotinamide] | 15.1 | – |
| CC(=O)NCCNC(=O)c1ccc(OCc2conc2-c2ccc(Cl)cc2)nc1 [Example 356, N-(2-Acetylamino-ethyl)-6-[3-(4-chloro-phenyl)-isoxazol-4-ylmethoxy]-nicotinamide] | 13.1 | – |
| Cc1onc(-c2ccc(F)cn2)c1COc1ccc(C(=O)N[C@@H](C)C(F)(F)F)cn1 [Example 299, 6-[3-(5-Fluoro-pyridin-2-yl)-5-methyl-isoxazol-4-ylmethoxy]-N—((S)-2,2,2-trifluoro-1-methyl-ethyl)-nicotinamide] | 0.5 | – |
| Cc1onc(-c2cccc(F)c2F)c1COc1ccc(C(=O)NC(C)C)cn1 [Example 261, 6-[3-(2,3-Difluoro-phenyl)-5-methyl-isoxazol-4-ylmethoxy]-N-isopropyl-nicotinamide] | 26.5 | – |
| O=C(NC1CC1)c1ccc(OCc2conc2-c2ccccn2)nc1 [Example 360, N-Cyclopropyl-6-(3-pyridin-2-yl-isoxazol-4-ylmethoxy)-nicotinamide] | 18.9 | – |
| Cc1onc(-c2ccc(Cl)cn2)c1COc1ccc(C(=O)NC2CCOCC2)cn1 [Example 301, 6-[3-(5-Chloro-pyridin-2-yl)-5-methyl-isoxazol-4-ylmethoxy]-(tetrahydro-pyran-4-yl)-nicotinamide] | 0.3 | – |
| Cc1onc(-c2cccc(F)c2)c1COc1ccc(C(=O)NCC2CC2)cn1 [Example 90, N-Cyclopropylmethyl-6-[3-(3-fluoro-phenyl)-5-methyl-isoxazol-4-ylmethoxy]-nicotinamide] | 3.2 | – |
| Cc1onc(-c2ccncc2)c1COc1ccc(C(=O)NC2CCOCC2)cn1 [Example 150, 6-(5-Methyl-3-pyridin-4-yl-isoxazol-4-ylmethoxy)-N-(tetrahydro-pyran-4-yl)-nicotinamide] | 5.6 | – |
| Cc1onc(-c2ccc(Cl)cc2)c1COc1ccc(C(=O)NC(C)(C)CO)cn1 [Example 254, 6-[3-(4-Chloro-phenyl)-5-methyl-isoxazol-4-ylmethoxy]-N-(2-hydroxy-1,1-dimethyl-ethyl)-nicotinamide] | 4.1 | – |

| SMILES | Ki [1] [nM] | Ki [nM] |
| --- | --- | --- |
| Cc1onc(-c2ccccc2)c1CNc1ccc(C(=O)NC2CC2)cn1 [Example 165, N-Cyclopropyl-6-[(5-methyl-3-phenyl-isoxazol-4-ylmethyl)-amino]-nicotinamide] | 10.6 | – |
| Cc1onc(-c2ccccc2)c1COc1ccc(C(=O)NC2COCc3ccccc32)cn1 (stereo not drawn) [Example 79, N-Isochroman-4-yl-6-(5-methyl-3-phenyl-isoxazol-4-ylmethoxy)-nicotinamide] | 68.1 | – |
| O=C(NC1CCOCC1)c1ccc(OCc2conc2-c2ccc(Cl)cc2)nc1 [Example 345, 6-[3-(4-Chloro-phenyl)-isoxazol-4-ylmethoxy]-N-(tetrahydro-pyran-4-yl)-nicotinamide] | 6.4 | – |
| Cc1onc(-c2ccccc2)c1COc1ccc(C(=O)NC2CCCN(CC(=O)O)C2)cn1 (stereo not drawn) [Example 41, (3-{[6-(5-Methyl-3-phenyl-isoxazol-4-ylmethoxy)-pyridine-3-carbonyl]-amino}-piperidin-1-yl)-acetic acid] | 9.3 | – |
| Cc1onc(-c2ccccc2)c1CNc1ccc(C(=O)NC(C)C)cn1 [Example 164, N-Isopropyl-6-[(5-methyl-3-phenyl-isoxazol-4-ylmethyl)-amino]-nicotinamide] | 5.9 | – |
| Cc1onc(-c2ccc(F)cc2)c1COc1ccc(C(=O)N2C[C@H]3C[C@@H](C2)O3)cn1 [Example 114, {6-[3-(4-Fluoro-phenyl)-5-methyl-isoxazol-4-ylmethoxy]-pyridin-3-yl}-(1R,5S)-6-oxa-3-aza-bicyclo [3.1.1]hept-3-yl-methanone] | – | 42.6 |
| Cc1onc(-c2ccc(F)cc2)c1CNc1ccc(C(=O)NC2CC2)cn1 [Example 176, N-Cyclopropyl-6-{[3-(4-fluoro-phenyl)-5-methyl-isoxazol-4-ylmethyl]-amino}-nicotinamide] | 7.4 | – |
| Cc1onc(-c2ccc(F)cc2)c1COc1ccc(C(=O)NC2CC2)cn1 [Example 108, N-Cyclopropyl-6-[3-(4-fluoro-phenyl)-5-methyl-isoxazol-4-ylmethoxy]-nicotinamide] | 1.1 | – |
| Cc1onc(-c2ccc(Cl)cc2)c1COc1ccc(C(=O)NCC2CC2)cn1 [Example 118, 6-[3-(4-Chloro-phenyl)-5-methyl-isoxazol-4-ylmethoxy]-N-cyclopropylmethyl-nicotinamide] | 1.3 | – |
| Cc1onc(-c2ccccc2)c1COc1ccc(C(=O)NCC2CC2)cn1 [Example 16, N-Cyclopropylmethyl-6-(5-methyl-3-phenyl-isoxazol-4-ylmethoxy)-nicotinamide] | 3.9 | – |
| Cc1onc(-c2ccccc2)c1COc1ccc(C(=O)N[C@@H](Cc2ccccc2)C(=O)O)cn1 [Example 231, (S)-2-{[6-(5-Methyl-3-phenyl-isoxazol-4-ylmethoxy)-pyridine-3-carbonyl]-amino}-3-phenyl-propionic acid] | 28 | – |
| Cc1onc(-c2ccccc2)c1COc1ccc(C(=O)N[C@@H]2CCC[C@H]2O)cn1 (single isomer, unassigned) [Example 213, N-((1R,2R)-2-Hydroxy-cyclopentyl)-6-(5-methyl-3-phenyl-isoxazol-4-ylmethoxy)-nicotinamide or N-((1S,2S)-2-hydroxy-cyclopentyl)-6-(5-methyl-3-phenyl-isoxazol-4-ylmethoxy)-nicotinamide] | 1.6 | – |
| CC(C)NC(=O)c1ccc(OCc2conc2-c2ccccc2)nc1 [Example 321, N-Isopropyl-6-(3-phenyl-isoxazol-4-ylmethoxy)-nicotinamide] | 21.4 | – |
| Cc1onc(-c2ccccc2)c1COc1ccc(C(=O)N2CC(O)C2)cn1 [Example 191, (3-Hydroxy-azetidin-1-yl)-[6-(5-methyl-3-phenyl-isoxazol-4-ylmethoxy)-pyridin-3-yl]-methanone] | 5 | – |
| Cc1onc(-c2ccccc2)c1COc1ccc(C(=O)NC(C)C(F)(F)F)cn1 (stereo not drawn) [Example 234, 6-(5-Methyl-3-phenyl-isoxazol-4-ylmethoxy)-N-(2,2,2-trifluoro-1-methyl-ethyl)-nicotinamide] | 0.6 | – |
| Cc1onc(-c2ccccn2)c1COc1ccc(C(=O)NC(C)C)cn1 [Example 273, N-Isopropyl-6-(5-methyl-3-pyridin-2-yl-isoxazol-4-ylmethoxy)-nicotinamide] | 0.6 | – |
| Cc1onc(-c2ccccn2)c1COc1ccc(C(=O)NCC2CC2)cn1 [Example 277, N-Cyclopropylmethyl-6-(5-methyl-3-pyridin-2-yl-isoxazol-4-ylmethoxy)-nicotinamide] | 1.5 | – |
| Cc1onc(-c2ccc(Cl)cc2)c1COc1ccc(C(=O)N[C@@H](C)C(F)(F)F)cn1 [Example 258, 6-[3-(4-Chloro-phenyl)-5-methyl-isoxazol-4-ylmethoxy]-N—((S)-2,2,2-trifluoro-1-methyl-ethyl)-nicotinamide] | 1.3 | – |
